Seven molecules from patent publication US12240862B2, “Inhibitors of peptidylarginine deiminases” (Gilead Sciences, Inc., priority 2020, dated 2025) can be followed below.

The test concerns the target T1, human PAD4 (Homo sapiens, UniProt Q9UM07).
T1 construct: human PAD4 (NM_012387), A2P663, was PCR amplified; His-SUMO (N, cleaved yes); made in house; host or cells: E. coli BL21(DE3)
Nature of the test: In vitro PAD4 BAEE biochemical assay. As to conditions: human PAD4, BAEE substrate; 5 nM PAD4, 2 mM calcium chloride, 3 mM BAEE; geometric mean of multiple experiments. Put shortly: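 Ammonia generated from BAEE serves as the readout, measured by o-phthalaldehyde after EDTA termination. Final conditions: 5 nM human PAD4 (SUMO tag cleaved), 2 mM CaCl2, 3 mM BAEE, pH 7.6 MOPS buffer, 25 °C for 2 h following a 30-min compound preincubation.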

T1 sequence (Q9UM07 2-663): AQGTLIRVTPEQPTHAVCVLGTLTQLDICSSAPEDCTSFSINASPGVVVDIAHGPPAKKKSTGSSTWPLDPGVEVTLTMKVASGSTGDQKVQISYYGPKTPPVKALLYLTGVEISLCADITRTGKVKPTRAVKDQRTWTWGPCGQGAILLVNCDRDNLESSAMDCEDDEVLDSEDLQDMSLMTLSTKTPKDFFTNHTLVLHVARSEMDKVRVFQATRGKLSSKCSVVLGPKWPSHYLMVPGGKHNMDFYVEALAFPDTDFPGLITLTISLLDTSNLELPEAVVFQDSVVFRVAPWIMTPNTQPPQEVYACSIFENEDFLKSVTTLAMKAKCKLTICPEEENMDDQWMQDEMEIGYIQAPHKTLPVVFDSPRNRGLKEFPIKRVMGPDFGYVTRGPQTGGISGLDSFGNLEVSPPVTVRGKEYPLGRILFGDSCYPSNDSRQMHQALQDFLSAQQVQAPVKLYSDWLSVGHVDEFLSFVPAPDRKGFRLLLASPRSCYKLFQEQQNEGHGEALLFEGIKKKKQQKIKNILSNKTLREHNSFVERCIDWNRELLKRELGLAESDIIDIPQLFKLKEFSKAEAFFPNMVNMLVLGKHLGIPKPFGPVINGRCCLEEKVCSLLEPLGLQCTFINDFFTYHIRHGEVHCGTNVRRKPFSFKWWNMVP

As for `COCC1(C(=O)N[C@H](C)c2ccc3cc(-c4nc5cc(C(=O)N6[C@H]7CC[C@@H]6[C@H](N)C7)cc(OC)n5c4C)n(CC4CC4)c3n2)CC1` [Example 68, ~{N}-[(1~{R})-1-[2-[7-[(1~{R},2~{R},4~{S})-2-amino-7-azabicyclo [2.2.1]heptane-7-carbonyl]-5-methoxy-3-methylimidazo [1,2-a]pyridin-2-yl]-1-(cyclopropylmethyl)pyrrolo[2,3-b]pyridin-6-yl]ethyl]-1-(methoxymethyl) cyclopropane-1-carboxamide], the IC50 was 45.3 nM.

In the case of `COc1cc(C(=O)N2[C@H]3CC[C@@H]2[C@H](N)C3)cc2nc(-c3cc4ccc([C@@H](C)NC(=O)C5CC56CC6)nc4n3CC3CC3)c(C)n12` (stereo partly shown) [Example 69, ~{N}-[(1~{R})-1-[2-[7-[(1~{R},2~{R},4~{S})-2-amino-7-azabicyclo [2.2.1]heptane-7-carbonyl]-5-methoxy-3-methylimidazo [1,2-a]pyridin-2-yl]-1-(cyclopropylmethyl)pyrrolo[2,3-b]pyridin-6-yl]ethyl]spiro[2.2] pentane-2-carboxamide], the IC50 stood at 41 nM. As to `COc1cc(C(=O)N2[C@H]3CC[C@@H]2[C@H](N)C3)cc2nc(-c3cc4ccc([C@@H](C)NC(=O)c5cncs5)nc4n3CC3CC3)c(C)n12` [Example 72, ~{N}-[(1~{R})-1-[2-[7-[(1~{R},2~{R},4~{S})-2-amino-7-azabicyclo[2.2.1]heptane-7-carbonyl]-5-methoxy-3-methylimidazo [1,2-a]pyridin-2-yl]-1-(cyclopropylmethyl)pyrrolo [2,3-b]pyridin-6-yl]ethyl]-1,3-thiazole-5-carboxamide], the IC50 is 32.7 nM.

For the molecule `COc1cc(C(=O)N2[C@H]3CC[C@@H]2[C@H](N)C3)cc2nc(-c3cc4ccc([C@@H](C)NC(=O)c5ncco5)nc4n3CC3CC3)c(C)n12` [Example 73, ~{N}-[(1~{R})-1-[2-[7-[(1~{R},2~{R},4~{S})-2-amino-7-azabicyclo[2.2.1]heptane-7-carbonyl]-5-methoxy-3-methylimidazo [1,2-a]pyridin-2-yl]-1-(cyclopropylmethyl)pyrrolo [2,3-b]pyridin-6-yl]ethyl]-1,3-oxazole-2-carboxamide], the IC50 turned out to be 38.7 nM. Regarding `COc1cc(C(=O)N2[C@H]3CC[C@@H]2[C@H](N)C3)cc2nc(-c3cc4ccc([C@@H](C)NC(=O)c5cnn6c5CCC6)nc4n3CC3CC3)c(C)n12` [Example 74, ~{N}-[(1~{R})-1-[2-[7-[(1~{R},2~{R},4~{S})-2-amino-7-azabicyclo[2.2.1]heptane-7-carbonyl]-5-methoxy-3-methylimidazo [1,2-a]pyridin-2-yl]-1-(cyclopropylmethyl)pyrrolo [2,3-b]pyridin-6-yl]ethyl]-5,6-dihydro-4~{H}-pyrrolo[1,2-b] pyrazole-3-carboxamide], the IC50 was 28.3 nM. In the case of `COc1cc(C(=O)N2[C@H]3CC[C@@H]2[C@H](N)C3)cc2nc(-c3cc4ccc([C@@H](C)NC(=O)c5cnn(C)c5Cl)nc4n3CC3CC3)c(C)n12` [Example 75, ~{N}-[(1~{R})-1-[2-[7-[(1~{R},2~{R},4~{S})-2-amino-7-azabicyclo[2.2.1]heptane-7-carbonyl]-5-methoxy-3-methylimidazo [1,2-a]pyridin-2-yl]-1-(cyclopropylmethyl)pyrrolo [2,3-b]pyridin-6-yl]ethyl]-5-chloro-1-methylpyrazole-4-carboxamide] it was 39.2 nM.

Turning to `COc1cc(C(=O)N2[C@H]3CC[C@@H]2[C@H](N)C3)cc2nc(-c3cc4ccc([C@@H](C)NC(=O)c5cn(C)nc5Cl)nc4n3CC3CC3)c(C)n12` [Example 76, ~{N}-[(1~{R})-1-[2-[7-[(1~{R},2~{R},4~{S})-2-amino-7-azabicyclo[2.2.1]heptane-7-carbonyl]-5-methoxy-3-methylimidazo [1,2-a]pyridin-2-yl]-1-(cyclopropylmethyl)pyrrolo [2,3-b]pyridin-6-yl]ethyl]-3-chloro-1-methylpyrazole-4-carboxamide], the IC50 turned out to be 58 nM.

Usually IC50 stands for the concentration at which inhibition is half-maximal.
